The target in this assay is Histone deacetylase 2 (Homo sapiens, UniProt Q92769). Description: Inhibition of full-length recombinant human C-terminal GST tagged HDAC2 expressed in Sf9 insect cells using aminoluciferin peptide substrate at 100 nM preincubated for 3 hrs followed by substrate addition and measured after 30 mins by HDAC-Glo I/II chemiluminescence assay. The settings on record: time 3.5 hrs.
Sequence of Histone deacetylase 2 (Q92769 whole entry): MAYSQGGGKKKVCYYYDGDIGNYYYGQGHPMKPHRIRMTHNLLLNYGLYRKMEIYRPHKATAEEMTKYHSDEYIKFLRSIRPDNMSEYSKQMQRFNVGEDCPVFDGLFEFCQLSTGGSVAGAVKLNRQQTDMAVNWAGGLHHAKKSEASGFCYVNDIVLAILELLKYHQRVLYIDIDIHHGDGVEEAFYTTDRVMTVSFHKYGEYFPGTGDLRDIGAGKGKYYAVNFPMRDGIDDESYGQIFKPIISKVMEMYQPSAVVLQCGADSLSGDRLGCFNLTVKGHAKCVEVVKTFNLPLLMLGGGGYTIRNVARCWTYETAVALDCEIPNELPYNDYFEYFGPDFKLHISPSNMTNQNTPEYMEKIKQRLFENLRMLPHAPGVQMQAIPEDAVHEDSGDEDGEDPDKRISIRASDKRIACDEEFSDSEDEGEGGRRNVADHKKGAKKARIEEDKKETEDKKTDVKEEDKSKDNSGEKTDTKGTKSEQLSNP
The inhibition is how much of the control response was suppressed. Regarding `Cc1cccc(C)c1NC(=O)Cn1cc(-c2ccc(C(=O)Nc3cc(-c4cccs4)ccc3N)cc2)nn1`, the inhibition was found to be 52%.
Next, `Nc1ccc(-c2cccs2)cc1NC(=O)c1ccc(-c2cn(CCc3c[nH]c4ccccc34)nn2)cc1`: 19%; `COc1ccc(Cn2cc(C(=O)Nc3cc(-c4ccccc4)ccc3N)nn2)cc1`: 6%.
Next, `Nc1ccc(-c2cccs2)cc1NC(=O)CCc1cn(-c2ccc(O)cc2)nn1`: 12%.
In the case of `Nc1ccc(-c2ccccc2)cc1NC(=O)c1cn(CCc2ccccc2C(F)(F)F)nn1`, the inhibition was found to be 0%.
The figure for `Cc1ccc(CCn2cc(C(=O)Nc3cc(-c4ccsc4)ccc3N)nn2)cc1` is 8%.
Turning to `Nc1ccc(-c2cccs2)cc1NC(=O)c1cn(CCc2ccc(Cl)cc2)nn1`, the inhibition was determined as 0%.
The figure for `Nc1ccc(-c2cccs2)cc1NC(=O)CCc1cn(CCc2ccc(C(=O)O)cc2)nn1` is 35%.
In the case of `Nc1ccc(-c2ccc(F)cc2)cc1NC(=O)CCc1cn(-c2ccc(Br)cc2)nn1`, the inhibition is 0%.
On to `Nc1ccc(-c2cccs2)cc1NC(=O)c1cn(CC2CCCCC2)nn1`, for which the inhibition worked out at 1%.
The figure for `Nc1ccc(-c2cccs2)cc1NC(=O)c1ccc(-c2cn(-c3cccc4ccccc34)nn2)s1` is 0%; for `Nc1ccc(-c2ccsc2)cc1NC(=O)CCc1cn(-c2ccc([N+](=O)[O-])cc2)nn1` it is 0%.
The figure for `Nc1ccc(-c2ccsc2)cc1NC(=O)CCc1cn(CCc2ccc(C(=O)O)cc2)nn1` is 31%; for `Cc1cccc(C)c1NC(=O)Cn1cc(CCC(=O)Nc2cc(-c3ccsc3)ccc2N)nn1` it is 18%; for `Nc1ccc(-c2cccs2)cc1NC(=O)CCc1cn(CC2CCCCC2)nn1` it is 0%.
On to `Nc1ccc(-c2ccsc2)cc1NC(=O)c1cn(CCc2ccccc2Cl)nn1`, for which the inhibition was 0%.
The figure for `Nc1ccc(-c2ccccc2)cc1NC(=O)CCc1cn(-c2cccc3ccccc23)nn1` is 0%; for `Cc1csc(CCn2cc(C(=O)Nc3cc(-c4ccc(F)cc4)ccc3N)nn2)n1` it is 10%.
The figure for `Nc1ccc(-c2ccccc2)cc1NC(=O)CCc1cn(CCc2ccccc2Cl)nn1` is 0%; for `Nc1ccc(-c2cccnc2)cc1NC(=O)CCc1cn(CCc2ccccc2)nn1` it is 23%; for `Nc1ccc(-c2cccs2)cc1NC(=O)c1ccc(-c2cn(-c3ccc(I)cc3)nn2)s1` it is 0%.
The figure for `Nc1ccc(-c2cccs2)cc1NC(=O)c1ccc(-c2cn(CCc3cccc(C(F)(F)F)c3)nn2)cc1` is 3%.
On to `Nc1ccc(-c2ccsc2)cc1NC(=O)c1cn(-c2ccccc2-c2ccccc2)nn1`, for which the inhibition is 0%.
The figure for `Nc1ccc(-c2ccsc2)cc1NC(=O)c1cn(-c2ccc(Br)cc2)nn1` is 0%; for `Nc1ccc(-c2ccsc2)cc1NC(=O)c1cn(Cc2ccc(Oc3ccccc3)cc2)nn1` it is 0%; for `Nc1ccc(-c2cccnc2)cc1NC(=O)CCc1cn(-c2ccc(O)cc2)nn1` it is 0%.
On to `Nc1ccc(-c2ccsc2)cc1NC(=O)CCc1cn(CC23CC4CC(CC(C4)C2)C3)nn1`, for which the inhibition stood at 0%.
The figure for `Cc1cccc(CCn2cc(CCC(=O)Nc3cc(-c4ccccc4)ccc3N)nn2)c1` is 27%.
Next, `Cc1csc(CCn2cc(C(=O)Nc3cc(-c4ccccc4)ccc3N)nn2)n1`: 0%; `Nc1ccc(-c2cccs2)cc1NC(=O)c1cn(Cc2ccc(-c3ccccc3)cc2)nn1`: 0%.
Turning to `Nc1ccc(-c2ccsc2)cc1NC(=O)c1cn(Cc2ccc(C(=O)O)cc2)nn1`, the inhibition worked out at 49%.
The figure for `Nc1ccc(-c2ccc(F)cc2)cc1NC(=O)CCc1cn(CCc2cccc([N+](=O)[O-])c2)nn1` is 41%; for `CCc1ccc(Cn2cc(CCC(=O)Nc3cc(-c4cccnc4)ccc3N)nn2)cc1` it is 5%; for `Nc1ccc(-c2ccc(F)cc2)cc1NC(=O)c1cn(Cc2cccc3ccccc23)nn1` it is 8%.
Next, `Cc1cccc(C)c1NC(=O)Cn1cc(-c2ccc(C(=O)Nc3cc(-c4cccs4)ccc3N)s2)nn1`: 48%; `COc1ccc(Cn2cc(CCC(=O)Nc3cc(-c4cccnc4)ccc3N)nn2)cc1`: 10%.
Next, `Nc1ccc(-c2cccs2)cc1NC(=O)c1cn(CCc2ccccc2Cl)nn1`: 3%.
Regarding `Nc1ccc(-c2ccsc2)cc1NC(=O)c1cn(CCCc2ccccc2)nn1`, the inhibition came to 5%.
Take `Nc1ccc(-c2ccsc2)cc1NC(=O)CCc1cn(CCc2ccccc2)nn1`: the inhibition was 43%.
On to `Nc1ccc(-c2ccccc2)cc1NC(=O)c1cn(CCc2cccc3ccccc23)nn1`, for which the inhibition was 0%.
The figure for `Nc1ccc(-c2cccnc2)cc1NC(=O)CCc1cn(CCN2CCOCC2)nn1` is 0%; for `Cc1ccc(-n2cc(C(=O)Nc3cc(-c4ccccc4)ccc3N)nn2)cc1C` it is 0%; for `Nc1ccc(-c2cccs2)cc1NC(=O)c1cccc(-c2cn(CCc3cccc(C(F)(F)F)c3)nn2)c1` it is 0%.
The figure for `COc1ccc(-n2cc(C(=O)Nc3cc(-c4ccccc4)ccc3N)nn2)cc1` is 2%; for `Nc1ccc(-c2ccccc2)cc1NC(=O)c1cn(CC2CCCCC2)nn1` it is 0%.
Next, `Cc1ccc(CCn2cc(-c3ccc(C(=O)Nc4cc(-c5cccs5)ccc4N)cc3)nn2)cc1`: 19%; `Nc1ccc(-c2cccs2)cc1NC(=O)c1ccc(-c2cn(CCc3ccccc3)nn2)s1`: 40%.
Take `Nc1ccc(-c2cccs2)cc1NC(=O)c1cn(Cc2ccc3ccccc3n2)nn1`: the inhibition stood at 12%.
With `Nc1ccc(-c2ccsc2)cc1NC(=O)CCc1cn(-c2ccc(O)cc2)nn1`, the inhibition was 16%.
Consider `Nc1ccc(-c2cccnc2)cc1NC(=O)CCc1cn(Cc2ccc3ccccc3c2)nn1`, for which the inhibition is 19%.
Next, `Nc1ccc(-c2ccsc2)cc1NC(=O)CCc1cn(CCCCCC(=O)O)nn1`: 0%; `COc1ccc(CCn2cc(CCC(=O)Nc3cc(-c4cccnc4)ccc3N)nn2)cc1`: 21%; `Nc1ccc(-c2ccsc2)cc1NC(=O)CCc1cn(CS(=O)(=O)c2ccccc2)nn1`: 14%.
In the case of `Nc1ccc(-c2ccsc2)cc1NC(=O)CCc1cn(-c2cccc3ccccc23)nn1`, the inhibition was determined as 0%.
For `COc1ccc(CCn2cc(C(=O)Nc3cc(-c4cccs4)ccc3N)nn2)cc1`, the inhibition was found to be 21%.
Next, `Nc1ccc(-c2ccc(F)cc2)cc1NC(=O)CCc1cn(Cc2cc3ccccc3s2)nn1`: 3%; `CCc1ccc(Cn2cc(-c3cccc(C(=O)Nc4cc(-c5cccs5)ccc4N)c3)nn2)cc1`: 0%.
Next, `Nc1ccc(-c2ccsc2)cc1NC(=O)c1cn(CCc2ccccn2)nn1`: 1%; `Nc1ccc(-c2ccccc2)cc1NC(=O)CCc1cn(C[S+]([O-])c2ccccc2)nn1` (configuration not stated): 8%; `Nc1ccc(-c2cccs2)cc1NC(=O)c1cccc(-c2cn(CCc3ccc(C(=O)O)cc3)nn2)c1`: 14%.
The figure for `Nc1ccc(-c2ccc(F)cc2)cc1NC(=O)CCc1cn(Cc2nc3ccccc3[nH]2)nn1` is 32%.
For `COc1ccc(Cn2cc(-c3ccc(C(=O)Nc4cc(-c5cccs5)ccc4N)s3)nn2)cc1`, the inhibition worked out at 27%.

The record behind these values is ChEMBL document CHEMBL5390237, “Discovery of Selective Histone Deacetylase 1 and 2 Inhibitors: Screening of a Focused Library Constructed by Click Chemistry, Kinetic Binding Analysis, and Biological Evaluation” (J Med Chem, 2023).
